Source: patent publication US20260240799A1, “TREATMENT OF PRIMARY BILIARY CHOLANGITIS” (Genfit, priority 2023, published 2026)
“Also recorded” adds a separate entry of the source.

Key:
[1] = system: patients with PBC; details: cited from earlier work
[2] = system: participants with primary biliary cholangitis; test: PROMIS Fatigue SF 7a T-score in phase 3 trial NCT04526665 (ELATIVE); type: in vivo, human; design: key to PROMIS Fatigue T-score, observed mean / PROMIS Fatigue T-score, observed median: standardized T-score, mean 50, SD 10; higher = more fatigue; details: for Change from baseline in PROMIS Fatigue T-score, mean / Change from baseline in PROMIS Fatigue T-score, median / Change from baseline in PROMIS Fatigue T-score, LS means (MMRM) / Change from baseline in PROMIS Fatigue T-score, LS means difference with placebo (MMRM) / PROMIS Fatigue T-score, observed mean / PROMIS Fatigue T-score, observed median: 80 mg once daily
From the text: The patient's fatigue can be measured using the PROMIS Short Form—Fatigue 7a questionnaire (V1.0) to assess change from baseline in fatigue during treatment. The PROMIS Fatigue item banks assess a range of self-reported symptoms over the past seven days, from mild subjective feelings of tiredness to an overwhelming, debilitating, and sustained sense of exhaustion that likely decreases one's ability to execute daily activities and function normally in family or social roles. Fatigue is divided into the experience of fatigue (frequency, duration, and intensity) and the impact of fatigue on physical, mental, and social activities. PROMIS instruments are scored using item-level calibrations. The final score is represented by the T-score, a standardized score with a mean of 50 and a standard deviation (SD) of 10. A 1-point decrease of the PROMIS Fatigue T-score represents a meaningful change in fatigue. This improvement corresponds to changes in alertness and well-being that are easily noticeable. Likewise, a noticeable worsening corresponds to a 1-point increase of the PROMIS Fatigue T-score (Schattenberg et al.; “Evaluating Pruritus and Fatigue in Patients with Treatment-Refractory Primary Biliary Cholangitis” EASL 21-24 Jun. 2023).
Participants aged 18 to 75 years, who had been diagnosed with primary biliary cholangitis according to established criteria, were recruited at 82 sites in 14 countries. Inclusion criteria were an alkaline phosphatase level of ≥1.67 times the upper limit of the normal range (ULN), and a total bilirubin level of ≤2 times the ULN. Prior to screening, eligible participants had received 13 to 15 mg/kg ursodeoxycholic acid treatment per day for at least 12 months (stable dose for at least 3 months) or were intolerant to ursodeoxycholic acid (no treatment for at least 3 months).
In this double-blind, placebo-controlled, phase 3 trial, participants with an inadequate response or intolerance to ursodeoxycholic acid were randomized 2:1 to receive elafibranor 80 mg or placebo once daily. Participants receiving stable doses of ursodeoxycholic acid for at least three months prior to enrollment continued their treatment regimen throughout the trial. The overall double-blind treatment period consisted of two parts. In part one, all randomized patients received a minimum of 52 weeks of double-blind treatment. In part two, participants continued to receive double-blind treatment beyond Week 52 in a variable treatment period until all participants had completed their Week 52 assessment or until a maximum treatment duration of 104 weeks, whichever came first. The first database lock occurred after the last participant completed its Week 52 visit in the double-blind period. At the end of the double-blind period (lasting 52 to 104 weeks), participants could optionally enter an open-label extension where they would receive elafibranor 80 mg for up to five years.
From September 2020 through May 2023, 161 participants were randomly assigned to receive elafibranor 80 mg (108 participants) or placebo (53 participants); these participants made up the intent-to-treat (ITT) and safety populations. The pruritus intent-to-treat population included 66 participants with moderate-to-severe pruritus (44 receiving elafibranor, 22 receiving placebo).
The Patient Reported Outcome Measurement Information System (PROMIS®) is the product of a massive effort begun in 2004 and based on modern measurement theory, to address the need to develop precise, consensus measures of health outcome, including fatigue, suitable for use across chronic diseases in particular PBC. The PROMIS Fatigue Short Form 7a (PROMIS Fatigue SF 7a) is a seven-item questionnaire derived from the 95-item PROMIS Fatigue item bank. […]

[3] = system: serum alkaline phosphatase (ALP); test: serum ALP change in phase 3 study on PBC (ELATIVE); type: in vivo, human; details: elafibranor 80 mg treatment group; PBC (placebo 3.2%)
[4] = system: patients with PBC; test: safety and tolerability in PBC patients; type: in vivo, human
[5] = Week 4, Pruritus ITT analysis set
[6] = Week 13, Pruritus ITT analysis set
[7] = Week 26, Pruritus ITT analysis set
[8] = Week 39, Pruritus ITT analysis set
[9] = Week 52, Pruritus ITT analysis set

## CC[C@H]1[C@@H](O)[C@@H]2[C@H](CC[C@]3(C)[C@@H]([C@H](C)CCC(=O)O)CC[C@@H]23)[C@@]2(C)CC[C@@H](O)C[C@@H]12 [OCA, obeticholic acid]
[1]
  fatigue as side effect of treatment: one of the most common side effects

## CSc1ccc(C(=O)C=Cc2cc(C)c(OC(C)(C)C(=O)O)c(C)c2)cc1 [Elafibranor, 2-(2,6-dimethyl-4-{3-[4-(methylsulfanyl)phenyl]-3-oxopropen-1-yl}phenoxy)-2-methylpropanoic acid]
[2]; 80 mg daily, participants with PBC
  effect on fatigue (PROMIS Fatigue SF 7a) compared to placebo, in words: significative reduction; also recorded: improvement in fatigue
[2]; Week 4, ITT analysis set
  Change from baseline in PROMIS Fatigue T-score, mean: −1.66
  Change from baseline in PROMIS Fatigue T-score, median: −1.60
[2]; [5]
  Change from baseline in PROMIS Fatigue T-score, mean: −2.86
  Change from baseline in PROMIS Fatigue T-score, median: −2.70
[2]; Week 13, ITT analysis set
  Change from baseline in PROMIS Fatigue T-score, LS means (MMRM): −2.16
  Change from baseline in PROMIS Fatigue T-score, LS means difference with placebo (MMRM): −2.11
  Change from baseline in PROMIS Fatigue T-score, mean: −2.24
  Change from baseline in PROMIS Fatigue T-score, median: −1.50
  PROMIS Fatigue T-score, observed mean: 53.63
  PROMIS Fatigue T-score, observed median: 52.95
[2]; [6]
  Change from baseline in PROMIS Fatigue T-score, LS means (MMRM): −3.50
  Change from baseline in PROMIS Fatigue T-score, LS means difference with placebo (MMRM): −3.15
  Change from baseline in PROMIS Fatigue T-score, mean: −3.54
  PROMIS Fatigue T-score, observed mean: 57.49
  PROMIS Fatigue T-score, observed median: 59.20
[2]; Week 26, ITT analysis set
  Change from baseline in PROMIS Fatigue T-score, mean: −2.23
  Change from baseline in PROMIS Fatigue T-score, median: −1.55
[2]; [7]
  Change from baseline in PROMIS Fatigue T-score, mean: −3.50
  Change from baseline in PROMIS Fatigue T-score, median: −3.20
[2]; Week 39, ITT analysis set
  Change from baseline in PROMIS Fatigue T-score, mean: −2.41
  Change from baseline in PROMIS Fatigue T-score, median: −1.45
[2]; [8]
  Change from baseline in PROMIS Fatigue T-score, mean: −4.54
  Change from baseline in PROMIS Fatigue T-score, median: −4.05
[2]; Week 52, ITT analysis set
  Change from baseline in PROMIS Fatigue T-score, LS means (MMRM): −2.45
  Change from baseline in PROMIS Fatigue T-score, LS means difference with placebo (MMRM): −1.23
  Change from baseline in PROMIS Fatigue T-score, mean: −2.75
  Change from baseline in PROMIS Fatigue T-score, median: −2.80
  PROMIS Fatigue T-score, observed mean: 53.70
  PROMIS Fatigue T-score, observed median: 53.70
[2]; [9]
  Change from baseline in PROMIS Fatigue T-score, LS means (MMRM): −4.53
  Change from baseline in PROMIS Fatigue T-score, LS means difference with placebo (MMRM): −3.77
  Change from baseline in PROMIS Fatigue T-score, mean: −4.58
  Change from baseline in PROMIS Fatigue T-score, median: −4.20
  PROMIS Fatigue T-score, observed mean: 56.23
  PROMIS Fatigue T-score, observed median: 56.45
[3]
  mean relative change from baseline to endpoint in serum ALP: −48.3%
[4]
  safety and tolerability: safe and well-tolerated
